Results on 57 compounds are retold here after patent US9789096B2, “Methods and compositions for selective and targeted cancer therapy” (Board of Regents of the University of Texas System, priority 2013, dated 2017).

Read-outs that look alike come from different tables or passages of the source. Where only a bound is given, the exact number is not on record here.

The test system of test [1] is H1819. Briefly: Cell viability dose-response, H1819. It counts as cell-based, human. To be noted: Homo sapiens; for IC50: NCI-H1819, 12-point dose-response starting at 50 micromolar, 3-fold increments, in duplicate, read-out: toxicity data, H1819; for AC50: NCI-H1819, Table 8, 12-point dose-response starting at 50 micromolar. As to the method: (§1) FIG. 6A. […] Cell viability is plotted vs. compound concentration. Compound was added to cells plated at 15% confluence in 96-well plates in RPMI-1640 media supplemented with 5% Fetal Bovine Serum and 2 mM L-Glutamine. After 4 days of incubation, ATP levels were measured using Cell Titer Glo (Promega). Data are presented as the average of 2 replicates ±SEM.
(§2) Selectivity may be measured by the half maximal inhibitory concentration (IC50), which, as used herein, is a measure of the effectiveness of a compound in killing cells. This quantitative measure indicates how much of a particular compound is needed to kill a particular cell population by half (e.g., as indicated by the amount of ATP). […] The IC50 can be determined by constructing a dose-response curve. The lower the IC50, the higher the potency, and the greater the difference between IC50 values for different cell lines (e.g., sensitive lines vs. insensitive lines, and sensitive lines vs. normal lines) the greater the selectivity. […]
(§3) With this information, we synthesized and tested a series of small molecules derived in conception from the oxalamide and chromone scaffold including N-acyl ureas, as shown in Tables 6-8. Each compound was tested in a 12-point dose-response study starting at 50 micromolar and decreasing in 3-fold increments to sub-nanomolar concentrations, in duplicate. Additionally, one or more additional cell line was tested in the same way.

In test [2] the test system is H2122. Nature of the test: Cell viability dose-response, H2122. It is filed as cell-based, human. To be noted: Homo sapiens; for AC50: NCI-H2122, Table 8, 12-point dose-response starting at 50 micromolar. How it is done: as §1, §2, §3
Setting [3] is: NCI-H2122, 12-point dose-response starting at 50 micromolar, 3-fold increments, in duplicate, read-out: toxicity data, H2122.

Regarding `COc1ccc(CCNC(=O)C(=O)Nc2cnccn2)cc1` [SW208137-1-A], the IC50 in test [1] and in test [2] (setting [3]) was no less than 49.5 µM throughout.
As for `COc1ccc(CCNC(=O)C(=O)Nc2ccc(OC)c(C)c2)cc1` [SW206970-1], the IC50 was no less than 49.5 µM in test [1] and 0.809 µM in test [2] (setting [3]).
On the same counts, the results for `COc1ccc(CCNC(=O)c2nc3ccccc3c(=O)[nH]2)cc1` [SW208063-1-A] are no less than 49.5 µM and no less than 49.5 µM.
On the same counts, the results for `COc1ccc(CCNC(=O)C(=O)Nc2c(Br)cccc2Br)cc1` [SW206887-1-A] are no less than 49.5 µM and no less than 49.5 µM.
On the same counts, the results for `COc1ccc(CCNC(=O)c2ccc3ccccc3c2O)cc1` [SW208124-1-A] are 34.1 µM and 36.2 µM.
`O=c1c(Cc2ccc(C(F)(F)F)cc2)coc2cc(OCc3cnn(-c4ccccc4)c3)ccc12` [SW209185-1]: the AC50 – broadly, the concentration at which the activity in the assay is half-maximal – was 28.6 µM in test [1] and 0.085 µM in test [2].
With `COc1ccc(CCNC(=O)c2cnc3ccccc3n2)cc1` [SW208051-1-A], the IC50 in test [1] and in test [2] (setting [3]) was no less than 49.5 µM in each case.
As to `COc1ccc(CCNC(=O)C(=O)N2Cc3ccccc3C2)cc1` [SW208058-1-A], the IC50 in test [1] and in test [2] (setting [3]) was no less than 49.5 µM throughout.
Turning to `COc1ccc(CCNC(=O)C(=O)Oc2ccc(Cl)cc2)cc1` [SW208148-1-A], the IC50 was no less than 49.5 µM in test [1] and 7.17 µM in test [2] (setting [3]).
For `COc1ccc(C(=O)c2ccc(NC(=O)C(=O)NCCc3ccc(O)cc3)cc2)cc1` [SW208117-1-A], the IC50 in test [1] was 15.6 µM; in test [2] (setting [3]), 0.031 µM; in test [2] (NCI-H2122, Table 9, competitor, read-out: IC50 to H2122 cells), 0.0244 µM.
Take `COc1ccc(CCNC(=O)C(=O)Nc2ccc(Cl)nc2)cc1` [SW208127-1-A]: the figures for the IC50 in test [1] and in test [2] (setting [3]) were no less than 49.5 µM and 0.438 µM, respectively.
Taken in the same sequence, the figures for `COc1ccc(CCNC(=O)COc2ccc(Cl)cc2)cc1` [SW208038-1-A] were no less than 49.5 µM and no less than 49.5 µM.
As for `COc1ccc(CCNC(=O)C(=O)Nc2ccccn2)cc1` [SW208122-1-A], the IC50 was no less than 49.5 µM in test [1] and 45 µM in test [2] (setting [3]).
Taken in the same sequence, the figures for `COc1ccc(CCNC(=O)C(=O)Nc2cnccc2C)cc1` [SW208134-1-A] were no less than 49.5 µM and no less than 49.5 µM.
Regarding `COc1ccc(CCNC(=O)C(=O)N2CCCCC2)cc1` [SW208030-1-A], the IC50 in test [1] and in test [2] (setting [3]) was no less than 49.5 µM in each case.
`COc1ccc(CCNC(=O)C(=O)Nc2ccc(Cl)c(Cl)c2)cc1` [SW206960-1]: the IC50 was no less than 49.5 µM in test [1] and 0.491 µM in test [2] (setting [3]).
As for `COc1ccc(CCNC(=O)C(=O)NN2CCN(C)CC2)cc1` [SW208131-1-A], the IC50 in test [1] and in test [2] (setting [3]) was no less than 49.5 µM each time.
Turning to `COc1cccc(CCNC(=O)C(=O)Nc2ccc(Cl)cc2C)c1` [SW206965-1], the IC50 in test [1] and in test [2] (setting [3]) was no less than 49.5 µM throughout.
Consider `COc1ccc(CNC(=O)Nc2ccc(Cl)cc2)cc1` [SW208046-1-A], for which the IC50 in test [1] and in test [2] (setting [3]) was no less than 49.5 µM in each case.
In the case of `COc1ccc(CCNC(=O)C(=O)NC2CC2)cc1` [SW208031-1-A], the IC50 in test [1] and in test [2] (setting [3]) was no less than 49.5 µM throughout.
Regarding `COc1ccc(CCNC(=O)C(=O)Nc2cncc(Cl)c2)cc1` [SW208139-1-A], the IC50 in test [1] was no less than 49.5 µM; in test [2] (setting [3]) it was 5.88 µM.
Taken in the same sequence, the figures for `COc1ccc(CCNC(=O)C(=O)Nc2ccc(Cl)cc2F)cc1` [SW206951-1] were no less than 49.5 µM and no less than 49.5 µM.
On the same counts, the results for `COc1ccc(CCNC(=O)C(=O)N(C)c2cccc(F)c2)cc1` [SW208028-1-A] are no less than 49.5 µM and no less than 49.5 µM.
On the same counts, the results for `COc1ccc(CCNC(=O)CNc2ccc(Cl)cc2)cc1` [SW208041-1-A] are no less than 49.5 µM and 48.4 µM.
As for `COc1ccc(CCNC(=O)C(=O)Nc2cccnc2F)cc1` [SW208133-1-A], the IC50 in test [1] and in test [2] (setting [3]) was no less than 49.5 µM each time.
Take `COc1ccc(CCNC(=O)c2cc(O)c3cccc(O)c3n2)cc1` [SW208054-1-A]: the figures for the IC50 in test [1] and in test [2] (setting [3]) were no less than 49.5 µM and 46.3 µM, respectively.
On the same counts, the results for `COc1ccc(CCNC(=O)C(=O)Nc2c(C)cccc2Cl)cc1` [SW206868-1-A] are no less than 49.5 µM and no less than 49.5 µM.
On the same counts, the results for `COc1ccc(CCNC(=O)C(=O)N2CCCC2)cc1` [SW208049-1-A] are no less than 49.5 µM and no less than 49.5 µM.
Taken in the same sequence, the figures for `COc1ccc(CCNC(=O)C(=O)N2CCc3ccccc32)cc1` [SW208059-1-A] were no less than 49.5 µM and no less than 49.5 µM.
In the case of `COc1ccc(CCNC(=O)C(=O)Nc2ccc(C(=O)c3ccc(OC)cc3)cc2)cc1` [SW208009-1-A], the figures for the IC50 in test [1] and in test [2] (setting [3]) were no less than 49.5 µM and 0.081 µM, respectively.
Taken in the same sequence, the figures for `COc1ccc(CCNC(=O)C(=O)Nc2cc(F)ccc2C)cc1` [SW206879-1-A] were no less than 49.5 µM and no less than 49.5 µM.
As to `COc1ccc(CCNC(=O)C(=O)Nc2cc(Cl)c(F)c(Cl)c2)cc1` [SW206889-1-A], the IC50 in test [1] and in test [2] (setting [3]) was no less than 49.5 µM throughout.
Turning to `COc1ccc(CCNC(=O)c2ccc3ccc(Br)cc3n2)cc1` [SW208057-1-A], the values for the IC50 in test [1] and in test [2] (setting [3]) were 34.9 µM and no less than 49.5 µM, respectively.
On the same counts, the results for `COc1ccc(CCNC(=O)C(=O)Nc2ccc(C)c(OC)c2)cc1` [SW206969-1] are 49 µM and no less than 49.5 µM.
Taken in the same sequence, the figures for `COc1ccc(CCNC(=O)C(=O)Nc2ccnc(C)c2)cc1` [SW208138-1-A] were no less than 49.5 µM and no less than 49.5 µM.
On to `COc1ccc(CCNC(=O)C(=O)c2ccccc2)cc1` [SW208145-1-A], for which the IC50 in test [1] and in test [2] (setting [3]) was no less than 49.5 µM throughout.
Regarding `COc1ccc(CNC(=O)COc2ccc(Cl)cc2)cc1` [SW208040-1-A], the IC50 in test [1] and in test [2] (setting [3]) was no less than 49.5 µM in each case.
`COc1ccc(CCNC(=O)C(=O)Nc2ccncc2)cc1` [SW208135-1-A]: the IC50 in test [1] and in test [2] (setting [3]) was no less than 49.5 µM in each case.
In the case of `COc1ccc(CCNC(=O)C(=O)Nc2cc(F)cc(Cl)c2)cc1` [SW206861-1-A], the IC50 is 44.2 µM in test [1] and no less than 49.5 µM in test [2] (setting [3]).
For the compound `COc1ccc(CCNC(=O)C(=O)Nc2ccc(Br)c(Br)c2)cc1` [SW206955-1], the IC50 in test [1] is no less than 49.5 µM; in test [2] (setting [3]), 0.421 µM.
On the same counts, the results for `COc1ccc(CCNC(=O)C(=O)N2CCN(C)CC2)cc1` [SW208048-1-A] are no less than 49.5 µM and no less than 49.5 µM.
For the compound `C#CCOc1ccc(C(=O)c2ccc(NC(=O)C(=O)NCCc3ccc(OC)cc3)cc2)cc1` [SW208108-1-A], the figures for the IC50 in test [1] and in test [2] (setting [3]) were no less than 49.5 µM and 0.028 µM, respectively.
As for `O=c1c(Cc2ccc(Br)cc2)coc2cc(OCc3cnn(-c4ccccc4)c3)ccc12` [SW209191-1], the concentration at half-maximal activity (AC50) in test [1] came out at 49.5 µM; in test [2], 0.087 µM.
With `CCOc1ccc(CCNC(=O)C(=O)Nc2ccc(Cl)cc2)cc1` [SW208061-1-A], the IC50 in test [1] and in test [2] (setting [3]) was no less than 49.5 µM each time.
On to `COc1ccc(CCNC(=O)C(=O)Nc2ccc(Cl)c(C)c2)cc1` [SW206974-1], for which the IC50 in test [1] is no less than 49.5 µM; in test [2] (setting [3]), 0.697 µM.
As to `O=c1c(Cc2cccc(C(F)(F)F)c2)coc2cc(OCc3cnn(-c4ccccc4)c3)ccc12` [SW209186-1], the concentration at half-maximal activity (AC50) in test [1] was 49.5 µM; in test [2] it was 0.047 µM.
On to `COc1ccc(CCNC(=O)C(=O)NC2CCCC2)cc1` [SW208033-1-A], for which the IC50 in test [1] and in test [2] (setting [3]) was no less than 49.5 µM each time.
Regarding `COc1ccc(CCNC(=O)C(=O)Nc2cncc(C)c2)cc1` [SW208140-1-A], the IC50 was 16.5 µM in test [1] and 2.62 µM in test [2] (setting [3]).
Taken in the same sequence, the figures for `COc1ccc(CCNC(=O)C(=O)N2CCOCC2)cc1` [SW208044-1-A] were no less than 49.5 µM and no less than 49.5 µM.
On the same counts, the results for `COc1ccc(NC(=O)Nc2ccc(OC)cc2)cc1` [SW113878-2-A] are no less than 49.5 µM and no less than 49.5 µM.
Taken in the same sequence, the figures for `COc1ccc(CCNC(=O)C(=O)Nc2ccc(Cl)c(C(F)(F)F)c2)cc1` [SW206962-1] were no less than 49.5 µM and 1.4 µM.
Turning to `COc1ccc(CCNC(=O)C(=O)Nc2ccc(Cl)cc2Br)cc1` [SW206953-1], the IC50 is 41.7 µM in test [1] and no less than 49.5 µM in test [2] (setting [3]).
`COc1ccc(CCNC(=O)C(=O)Nc2cc(F)c(Br)c(F)c2)cc1` [SW206872-1-A]: the IC50 in test [1] and in test [2] (setting [3]) was no less than 49.5 µM each time.
As for `COc1ccc(CNC(=O)C(=O)NCc2ccc(Cl)cc2)cc1` [SW208026-1-A], the IC50 in test [1] and in test [2] (setting [3]) was no less than 49.5 µM throughout.
Regarding `COc1ccc(CCNC(=O)C(=O)Nc2cc(C)cnc2Cl)cc1` [SW208144-1-A], the IC50 in test [1] and in test [2] (setting [3]) was no less than 49.5 µM throughout.
Regarding `COc1ccc(CCNC(=O)C(=O)Nc2ccc(Cl)cc2C)cc1` [SW206926-1], the IC50 in test [1] and in test [2] (setting [3]) was no less than 49.5 µM in each case.
Consider `COc1cccc(CCNC(=O)C(=O)Nc2ccc(Cl)cc2)c1` [SW206964-1], for which the IC50 in test [1] and in test [2] (setting [3]) was no less than 49.5 µM throughout.
